Measured values taken from US20170325452A1, “Active compound combinations” (BAYER CROPSCIENCE AKTIENGESELLSCHAFT, priority 2014, published 2017).

Key:
[1] = test system: Alternaria solani; experiment: in vivo preventive test on Alternaria test (tomatoes); settings: single active compound
Source text: (§1) A synergistic effect of fungicides is always present when the fungicidal activity of the active compound combinations exceeds the total of the activities of the active compounds when applied individually. The expected activity for a given combination of two active compounds can be calculated as follows (cf. Colby, S. R., “Calculating Synergistic and Antagonistic Responses of Herbicide Combinations”, Weeds 1967, 15, 20-22):
(§2) • X is the efficacy when active compound A is applied at an application rate of m ppm (or g/ha), • Y is the efficacy when active compound B is applied at an application rate of n ppm (or g/ha), • E is the efficacy when the active compounds A and B are applied at application rates of m and n ppm (or g/ha), respectively, and then
(§3) The degree of efficacy, expressed in % is denoted. 0% means an efficacy which corresponds to that of the control while an efficacy of 100% means that no disease is observed.
Example: In Vivo Preventive Test on Alternaria Test (Tomatoes)
(§4) • Solvent: 24.5 parts by weight of acetone • 24.5 parts by weight of dimethylacetamide • Emulsifier: 1 part by weight of alkylaryl polyglycol ether
(§5) To produce a suitable preparation of active compound, 1 part by weight of active compound is mixed with the stated amounts of solvent and emulsifier, and the concentrate is diluted with water to the desired concentration.
(§6) To test for preventive activity, young plants are sprayed with the preparation of active compound at the stated rate of application. After the spray coating has dried on, the plants are inoculated with an aqueous spore suspension of Alternaria solani. The plants are then placed in an incubation cabinet at approximately 20° C. and a relative atmospheric humidity of 100%.
The test is evaluated 3 days after the inoculation. 0% means an efficacy which corresponds to that of the untreated control while an efficacy of 100% means that no disease is observed.

[2] = test system: Botrytis cinerea; experiment: in vivo preventive test on Botrytis test (beans); settings: single active compound, the 3rd table
Source text: as §1, §2, §3
Example: In Vivo Preventive Test on Botrytis Test (Beans)
as §4, §5
To test for preventive activity, young plants are sprayed with the preparation of active compound. After the spray coating has dried on, 2 small pieces of agar covered with growth of Botrytis cinerea are placed on each leaf. The inoculated plants are placed in a darkened chamber at 20° C. and a relative atmospheric humidity of 100%.
2 days after the inoculation, the size of the lesions on the leaves is evaluated. 0% means an efficacy which corresponds to that of the untreated control, while an efficacy of 100% means that no disease is observed.

[3] = test system: Venturia inaequalis; experiment: in vivo preventive test on Venturia test (apples); settings: single active compound
Source text: as §1, §2, §3
Example: In Vivo Preventive Test on Venturia Test (Apples)
as §4, §5
as §6, with “conidia” for “spore”, “the causal agent of apple scab (Venturia inaequalis) and” for “Alternaria solani. The plants are”, “remain for 1 day” for “placed”
The plants are then placed in a greenhouse at approximately 21° C. and a relative atmospheric humidity of approximately 90%.
(§7) The test is evaluated 10 days after the inoculation. 0% means an efficacy which corresponds to that of the untreated control, while an efficacy of 100% means that no disease is observed.

[4] = test system: Phakopsora pachyrhizi; experiment: in vivo preventive test on Phakopsora test (soybeans); settings: single active compound
Source text: as §1, §2, §3
Example: In Vivo Preventive Test on Phakopsora Test (Soybeans)
as §4, §5
as §6, with “the causal agent of soybean rust (Phakopsora pachyrhizi) and stay for 24 h without light” for “Alternaria solani. The plants are then placed”, “24°” for “20°”, “95%.” for “100%.”
The plants remain in the incubation cabinet at approximately 24° C. and a relative atmospheric humidity of approximately 80% and a day/night interval of 12 h.
The test is evaluated 7 days after the inoculation. 0% means an efficacy which corresponds to that of the untreated control, while an efficacy of 100% means that no disease is observed.

[5] = test system: Uromyces appendiculatus; experiment: in vivo preventive test on Uromyces test (beans); settings: single active compound, the 7th table
Source text: as §1, §2, §3
Example: In Vivo Preventive Test on Uromyces Test (Beans)
as §4
To produce a suitable preparation of active compound, 1 part by weight of active compound is mixed with the stated amounts of solvent and emulsifier, and the concentrate is diluted with water to the desired concentration. To test for preventive activity, young plants are sprayed with the preparation of active compound at the stated rate of application. After the spray coating has dried on, the plants are inoculated with an aqueous spore suspension of the causal agent of bean rust (Uromyces appendiculatus) and then remain for 1 day in an incubation cabinet at approximately 20° C. and a relative atmospheric humidity of 100%. The plants are then placed in a greenhouse at approximately 21° C. and a relative atmospheric humidity of approximately 90%.
as §7

Question: Which “Efficacy in % found” value ([1]; 0.25 ppm a.i., the 1st table) does the source give for `CO/C=C(/C(=O)OC)c1ccccc1Oc1cc(Oc2ccccc2C#N)ncn1` [1.3, azoxystrobin] here?
Answer: The value was 45%.

Question: And the “Efficacy in % found” value ([1]; 0.25 ppm a.i., the 2nd table)?
Answer: Its value is 35%.

Question: And the “Efficacy in % found” value ([1]; 0.5 ppm a.i., the 1st table)?
Answer: Its value is 35%.

Question: What about the “Efficacy in % found” value ([1]; 0.5 ppm a.i., the 2nd table) of the same molecule?
Answer: Its value is 8%.

Question: What about the “Efficacy in % found” value ([1]; 1 ppm a.i., the 1st table) of the same molecule?
Answer: The value was 65%.

Question: And the “Efficacy in % found” value ([1]; 1 ppm a.i., the 2nd table)?
Answer: Its value is 15%.

Question: What about the “Efficacy in % found” value ([2]; 0.25 ppm a.i.) of the same molecule?
Answer: The value was 30%.

Question: What about the “Efficacy in % found” value ([2]; 0.5 ppm a.i.) of the same molecule?
Answer: Its value is 15%.

Question: And the “Efficacy in % found” value ([3]; 0.5 ppm a.i., the 8th table)?
Answer: The value was 25%.

Question: And the “Efficacy in % found” value ([3]; 0.5 ppm a.i., the 9th table)?
Answer: The value was 88%.

Question: What about the “Efficacy in % found” value ([3]; 1 ppm a.i., the 8th table) of the same molecule?
Answer: Its value is 30%.

Question: And the “Efficacy in % found” value ([3]; 1 ppm a.i., the 9th table)?
Answer: Its value is 94%.

Question: And the “Efficacy in % found” value ([4]; 0.25 ppm a.i., the 4th table)?
Answer: Its value is 0%.

Question: And the “Efficacy in % found” value ([4]; 0.25 ppm a.i., the 5th table)?
Answer: The value was 16%.

Question: What about the “Efficacy in % found” value ([4]; 0.5 ppm a.i., the 4th table) of the same molecule?
Answer: The value was 18%.

Question: And the “Efficacy in % found” value ([4]; 0.5 ppm a.i., the 5th table)?
Answer: The value was 41%.

Question: How did the “Efficacy in % found” value ([1]; 0.25 ppm a.i., the 1st table) turn out when `CO/C=C(/C(=O)OC)c1ccccc1COc1cccc(C(F)(F)F)n1` [1.16, picoxystrobin] was run?
Answer: The value was 30%.

Question: What about the “Efficacy in % found” value ([1]; 0.25 ppm a.i., the 2nd table) of the same molecule?
Answer: The value was 8%.

Question: And the “Efficacy in % found” value ([1]; 0.5 ppm a.i., the 1st table)?
Answer: The value was 30%.

Question: And the “Efficacy in % found” value ([1]; 0.5 ppm a.i., the 2nd table)?
Answer: Its value is 8%.

Question: What about the “Efficacy in % found” value ([1]; 1 ppm a.i., the 1st table) of the same molecule?
Answer: Its value is 50%.

Question: What about the “Efficacy in % found” value ([1]; 1 ppm a.i., the 2nd table) of the same molecule?
Answer: Its value is 35%.

Question: What about the “Efficacy in % found” value ([2]; 0.25 ppm a.i.) of the same molecule?
Answer: The value was 40%.

Question: And the “Efficacy in % found” value ([2]; 0.5 ppm a.i.)?
Answer: Its value is 40%.

Question: And the “Efficacy in % found” value ([3]; 0.5 ppm a.i., the 9th table)?
Answer: Its value is 13%.

Question: What about the “Efficacy in % found” value ([4]; 0.25 ppm a.i., the 4th table) of the same molecule?
Answer: The value was 0%.

Question: And the “Efficacy in % found” value ([4]; 0.25 ppm a.i., the 5th table)?
Answer: The value was 0%.

Question: And the “Efficacy in % found” value ([4]; 0.5 ppm a.i., the 4th table)?
Answer: Its value is 24%.

Question: And the “Efficacy in % found” value ([4]; 0.5 ppm a.i., the 5th table)?
Answer: The value was 0%.

Question: What about the “Efficacy in % found” value ([4]; 1 ppm a.i., the 4th table) of the same molecule?
Answer: Its value is 9%.

Question: What about the “Efficacy in % found” value ([4]; 1 ppm a.i., the 5th table) of the same molecule?
Answer: The value was 62%.

Question: What does the source list for `CON=C(C(=O)OC)c1ccccc1CON=C(C)c1cccc(C(F)(F)F)c1` [1.22, trifloxystrobin]?
Answer: Efficacy in % found ([1]; 0.25 ppm a.i., the 1st table): 8%; Efficacy in % found ([1]; 0.5 ppm a.i., the 1st table): 24%; Efficacy in % found ([1]; 1 ppm a.i., the 1st table): 35%; Efficacy in % found ([3]; 0.25 ppm a.i., the 10th table): 0%; Efficacy in % found ([3]; 0.5 ppm a.i., the 10th table): 5%; Efficacy in % found ([3]; 1 ppm a.i., the 10th table): 5%; Efficacy in % found ([4]; 0.25 ppm a.i., the 6th table): 0%; Efficacy in % found ([4]; 0.5 ppm a.i., the 6th table): 0%; Efficacy in % found ([4]; 1 ppm a.i., the 6th table): 0%; Efficacy in % found ([5]; 0.25 ppm a.i.): 0%; Efficacy in % found ([5]; 1 ppm a.i.): 0%

Question: What does the source list for `CCC1CC(C)(C)c2cccc(NC(=O)c3cccnc3C(F)F)c21` (stereo not drawn) [(I-3), 2-(difluoromethyl)-N-(3-ethyl-1,1-dimethyl-2,3-dihydro-1H-inden-4-yl)nicotinamide]?
Answer: Efficacy in % found ([3]; 0.25 ppm a.i., the 8th table): 10%; Efficacy in % found ([3]; 1 ppm a.i., the 8th table): 13%; Efficacy in % found ([3]; 1 ppm a.i., the 10th table): 15%; Efficacy in % found ([4]; 0.5 ppm a.i., the 6th table): 28%; Efficacy in % found ([4]; 1 ppm a.i., the 6th table): 38%

Question: How did the “Efficacy in % found” value ([2]; 0.5 ppm a.i.) turn out when `CC[C@@H]1CC(C)(C)c2cccc(NC(=O)c3cccnc3C(F)F)c21` [(I-4), 2-(difluoromethyl)-N-[(3R)-3-ethyl-1,1-dimethyl-2,3-dihydro-1H-inden-4-yl]nicotinamide] was run?
Answer: The value was 15%.

Question: And the “Efficacy in % found” value ([3]; 0.25 ppm a.i., the 8th table)?
Answer: The value was 10%.

Question: What about the “Efficacy in % found” value ([3]; 1 ppm a.i., the 10th table) of the same molecule?
Answer: Its value is 37%.

Question: And the “Efficacy in % found” value ([4]; 0.5 ppm a.i., the 4th table)?
Answer: Its value is 87%.

Question: What about the “Efficacy in % found” value ([4]; 1 ppm a.i., the 4th table) of the same molecule?
Answer: The value was 87%.

Question: Which “Efficacy in % found” value ([3]; 1 ppm a.i., the 10th table) does the source give for `CCCC1CC(C)(C)c2cccc(NC(=O)c3cccnc3C(F)F)c21` (stereo not drawn) [(I-5), 2-(difluoromethyl)-N-(1,1-dimethyl-3-propyl-2,3-dihydro-1H-inden-4-yl)nicotinamide] here?
Answer: The value was 10%.

Question: And the “Efficacy in % found” value ([5]; 0.25 ppm a.i.)?
Answer: Its value is 93%.

Question: With `CCC[C@@H]1CC(C)(C)c2cccc(NC(=O)c3cccnc3C(F)F)c21` [(I-6), 2-(difluoromethyl)-N-[(3R)-1,1-dimethyl-3-propyl-2,3-dihydro-1H-inden-4-yl]nicotinamide] as the molecule, how does the “Efficacy in % found” value ([1]; 0.5 ppm a.i., the 1st table) read?
Answer: The value was 30%.

Question: What about the “Efficacy in % found” value ([4]; 0.25 ppm a.i., the 5th table) of the same molecule?
Answer: The value was 95%.

Question: And the “Efficacy in % found” value ([4]; 1 ppm a.i., the 5th table)?
Answer: The value was 93%.
